Test system: M0 macrophages differentiated from THP-1
Test: Intracellular activity of M0 macrophages, flux analyzer (OCR)
Type: cell-based, human
Conditions: M0, 3 ppm, 48 hours, versus solvent (DMSO) alone
Protocol: M0 macrophages, M1 macrophages and M2 macrophages induced to differentiate from THP-1 by the same method as Experiment 2 were measured for intracellular activity using an XFe24 (24-well) extracellular flux analyzer by Agilent Technologies (previously Seahorse Bioscience) (hereunder referred to as “flux analyzer”), with reference to Nat Immunol, 2014. 15(9): pp 846-855 (NPL 14). A flux analyzer is a device that allows non-invasive, highly sensitive periodic measurement of cells to determine the state of glycolysis as the main cellular energy metabolism pathway, and aerobic respiration by mitochondria.
Using a flux analyzer, oligomycin (ATP synthase inhibitor) (“Oligo”), FCCP (uncoupling agent) and rotenone (mitochondrial complex I inhibitor)+antimycin A (mitochondria complex III inhibitor) (“Rot+Ant”) were added at predetermined times and the oxygen consumption rate (OCR) and extracellular acidification rate (ECAR) were measured. The ECAR and OCR values used were the basal OCR and basal ECAR values at 18.3 minutes after measurement. Each measured value was calibrated by the number of cells determined by counting the cell nuclei stained by addition of Hoechst.
M0, M1 and M2 differentiated from THP-1 were prepared by the same method as Experiment 2, and hakushinin extract (hakushinin hydrolysate) prepared by the same method as Experiment 13 was added to the M0 (at 0.3 ppm, 1 ppm or 3 ppm). At 48 hours after incubation, the oxygen consumption rate (OCR) was measured using a flux analyzer. Each measured value was calibrated by the number of cells determined by counting the cell nuclei stained by addition of Hoechst (FIG. 21).
M0 and M2 differentiated from THP-1 were prepared by the same method as Experiment 2, linoleic acid, linolenic acid or juniperonic acid (3 ppm) was added to M0, and after 48 hours the oxygen consumption rate (OCR) was measured with a flux analyzer by the same method as Experiment 15. Each measured value was calibrated by the number of cells determined by counting the cell nuclei stained by addition of Hoechst.
The Basal OCR and mitochondrial respiration values for M0 were examined with the incubation time changed to 24 hours after addition of the hakushinin extract or unsaturated fatty acid. The experiment method was carried out by the same method as described in Experiment 17, except that the incubation time was changed to 24 hours after addition of the hakushinin extract or unsaturated fatty acid.

SMILES: CC/C=C\C/C=C\C/C=C\CCCC/C=C\CCCC(=O)O [juniperonic acid]
- Basal OCR: not significantly different
- mitochondrial respiration: not significantly different

SMILES: CCCCC/C=C\C/C=C\CCCCCCCC(=O)O [linoleic acid]
- Basal OCR: not significantly different
- mitochondrial respiration: not significantly different

Reference: US20230172837A1, “AGENT FOR PREVENTING AND/OR IMPROVING PHOTOAGING AND/OR DERMAL PIGMENTATION, COSMETIC METHOD USING SAME, AND COSMETIC DEVICE TO BE APPLIED IN SAID METHOD” (SHISEIDO COMPANY, LTD., priority 2020, published 2023)
